The record followed here is article PMC6361752, “Construction of a Quantitative Structure Activity Relationship (QSAR) Model to Predict the Absorption of Cephalosporins in Zebrafish for Toxicity Study” (Frontiers in Pharmacology, 2019).

Bounds are passed on as bounds.

This series relates to Zebrafish wild-type (WT) embryos. As to the kind of experiment: Absorption (internal concentration) of cephalosporins in zebrafish embryos by LC-MS/MS. The conditions noted are these: 6 hpf-3 dpf; for k-value (slope of the dose-internal concentration linear regression): zebrafish embryos, 0.28, 1.0 and 2.0 mM, higher k = more readily absorbed. As to the method:
Zebrafish (Danio rerio) were fed at the Institute of Medicinal Biotechnology, Beijing Union Medical College, Beijing, China. […] Zebrafish wild-type (WT) embryos (n = 30) at 6 h post-fertilization (6 hpf) were used. After immersing the embryos in 2 mL of each drug solution (Drugs were dissolved in breeding water), they were incubated in a 20 mm dish for 3 days. […] The zebrafish bodies were collected at 3 days post-fertilization (dpf). The blank controls were zebrafish WT embryos (n = 30) that were incubated in breeding water.
Using a cell strainer (100 μm, BD-Falcon, United States), zebrafish bodies (30 in each dish) were washed five times with deionized water. Zebrafish bodies were triturated in 100 μL of deionized water, and then they were homogenized for 1 min. Zebrafish homogenate (50 μL) and internal standard (IS) working solution (10 μL) were individually transferred into a 1.5-mL microcentrifuge tube. Then, 200 μL of 1% formic acid-methanol solution was added into the tube. The samples were vortexed for 20 s. To precipitate proteins, the samples were centrifuged at 10,800 g for 10 min. The resultant supernatant (10 μL) was injected into LC-MS/MS for analysis.
The LC-MS/MS technique was performed by combining a 20A LC (Shimadzu, Kyoto, Japan) and a 6500 Q-Trap mass spectrometer (AB Sciex, Foster City, CA, United States), which was equipped with an electrospray ionization (ESI) source. Moreover, LC separations were performed on a reversed-phase ACE C18 column (5 cm × 2.1 mm ID, 3 μm particle size, Advanced Chromatography Technologies, Aberdeen, United Kingdom), which was attached to a corresponding guard column (1 cm × 2.1 mm ID, 3 μm particle size; Advanced Chromatography Technologies, United Kingdom). The mobile phase comprised of 5 mM ammonium formate (pH = 3.5) (solvent A) and acetonitrile (solvent B). The composition of the gradient was as follows: 2% solvent B for the first 0.1 min; 3.5 min, 90% solvent B; 6.0 min, 90% solvent B; 6.1 min, 2% solvent B; and 10 min, 2% solvent B. Mass spectrometric analysis was performed in a positive mode. Ion-spray voltage was set at 5000 V, and source temperature was kept fixed at 500°C. Curtain gas, gas 1, and gas 2 were 25, 40, and 40 psi, respectively. Multiple reaction monitoring (MRM) scan was used for the quantification of 19 analytes. In this scan, we determined the most intense product ion (PI) of each analyte. The entrance potential (EP) of all analytes was 10 eV. For each ion transition, dwell time and pause time were set to 30 and 5 ms, respectively. The Analyst 1.6.2 software (AB Sciex, Foster City, CA, United States) was used to perform data acquisition and analysis.
Dose-internal concentration curves were constructed by linear regression analysis. The slope of each linear regression was defined as k-value for each drug. […] The entire data set was split into the training set and test set by a random index, which was operated by DS4.0 software. The training set percentage was set at 80.
Using the aforementioned method, we analyzed the internal concentrations of cephalosporins in zebrafish. […] The calibration samples and administration samples were processed in a timely manner. The internal concentration of each cephalosporin in the zebrafish was calculated by using the corresponding calibration curve (Table 2). […] Dose-internal concentration curves were constructed by linear regression analysis (Figure 1). For each drug, the slope of each linear regression was defined as k-value. This parameter was used to evaluate the absorption capacity of each drug.

Setting [1] is: zebrafish embryos exposed to 0.28 mM drug solution.
The mark [2] stands for this setting: zebrafish embryos exposed to 1 mM drug solution.
The mark [3] stands for this setting: zebrafish embryos exposed to 2 mM drug solution.

Turning to `N[C@@H](C(=O)N[C@@H]1C(=O)N2C(C(=O)O)=C(Cl)CS[C@H]12)c1ccccc1` [Cefaclor], the “k-value (slope of the dose-internal concentration linear regression)” value came out at 5.0027. The same compound showed an Internal concentration under setting [1] of 1.01 mM × 10^-5. The Internal concentration under setting [2] is 3.43 mM × 10^-5. In addition, the Internal concentration under setting [3] stood at 9.49 mM × 10^-5. Also, for the setting “listed as cefaclor”, the “k-value (slope of the dose-internal concentration linear regression)” value is reported as over 5.

`CO/N=C(\C(=O)N[C@@H]1C(=O)N2C(C(=O)O)=C(CSc3nc(C)c(CC(=O)O)s3)CS[C@H]12)c1csc(N)n1` [Cefodizime]: the “k-value (slope of the dose-internal concentration linear regression)” value is listed as 1.7709. This compound also yielded an Internal concentration under setting [1] of 0.51 mM × 10^-5. Also, the Internal concentration under setting [2] is listed as 0.94 mM × 10^-5. Besides, the Internal concentration under setting [3] came to 3.47 mM × 10^-5. Besides, the “k-value (slope of the dose-internal concentration linear regression)” value (listed as cefodizime) is recorded as under 5.
